# Source: US4476129A, “4-[2-[Bis(halophenyl)methoxy]-ethyl]-α-(substituted phenyl)-1-piperazinealkanol derivatives, processes for their preparation and pharmaceutical preparations containing them” (priority 1982, dated 1984)
# Several values for one entry are separate records, joined by “and”; a condition that tells them apart may be missing. Identical values can stand only once. Counter-ions that a name gives are not always drawn. Like-named read-outs stand apart in the source and are kept apart here.
# What was measured:
# [1] = system: stereotyped behaviour in female Wistar rats; assay: Stereotypy in the rat (stereotyped behaviour); assay type: in vivo; details: 50% of the maximal effect, observed 15-300 minutes after administration; for ED50: Rattus norvegicus, po; for ED50, stereotyped behaviour: p.o.
# Procedure: C. Stereotypy in the rat.
# The stereotyped behavior appearing in the rat after administration of centrally active dopaminergic substances can be regarded as a relevant test for antiparkinson agents.
# The tests were carried out with female Wistar rats under conditions with a low level of stimuli. The behaviour of the rats was observed on 15, 30, 60, 120, 180, 240 and 300 minutes after administration of the substance, the following parameters being considered:
# The total impression of the intensity of stereotypy was noted according to the following rating:
# For each dose a group of four rats was used, so that the total score for the seven observations was maximally 7×4×3=84.
# dopamine receptors [2] = assay: Affinity to dopamine receptors (receptor binding); design: species or system rat; details: membrane fraction of corpus striatum of the rat, radioactive labelled dopamine as ligand
# Procedure: (§1) B. Affinity to dopamine receptors.
# (§2) The affinity of the compounds to the dopamine receptors in a membrane fraction of the corpus striatum of the rat was determined as described by D. R. Burt et al., Mol. Pharmacol., 12, 800-812 (1976), dopamine and the dopamine antagonist haloperiodol being used as radioactive labelled ligands. The IC50-value is the concentration of the piperazine derivatives necessary to inhibit the specific binding of dopamine, or haloperiodol for 50%.
# dopamine receptors [3] = molecular target: T1, dopamine receptors (Rattus norvegicus, UniProt P61169); assay: Affinity to dopamine receptors (receptor binding)
# T1 construct: membrane fraction of the corpus striatum of the rat; from tissue; host or cells: rat corpus striatum, membrane fraction
# T1 sequence (P61169 whole entry): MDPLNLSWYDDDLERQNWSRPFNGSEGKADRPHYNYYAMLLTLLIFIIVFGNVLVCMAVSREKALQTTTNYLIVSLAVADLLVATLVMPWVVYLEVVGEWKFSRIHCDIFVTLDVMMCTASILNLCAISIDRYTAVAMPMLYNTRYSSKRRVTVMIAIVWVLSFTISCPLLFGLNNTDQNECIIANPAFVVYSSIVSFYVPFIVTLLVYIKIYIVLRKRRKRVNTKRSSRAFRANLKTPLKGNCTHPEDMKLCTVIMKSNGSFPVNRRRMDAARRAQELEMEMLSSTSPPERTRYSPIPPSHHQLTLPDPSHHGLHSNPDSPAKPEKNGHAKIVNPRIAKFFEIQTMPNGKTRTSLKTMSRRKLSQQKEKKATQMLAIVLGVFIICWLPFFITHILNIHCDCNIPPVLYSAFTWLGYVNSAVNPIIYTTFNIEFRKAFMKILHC
# Procedure: as §1, §2
# [4] = system: dopamine uptake by striatal synaptosomes (corpus striatum of the rat); assay: Inhibition of re-uptake of dopamine by striatal synaptosomes; assay type: biochemical; details: radioactive labelled dopamine
# Procedure: A. Inhibition of re-uptake of dopamine by striatal synaptosomes.
# The re-uptake process is the most important physiological mechanism causing inactivation of neurotransmitters like dopamine, which are released into the synaptic cleft by a nervous impulse. Inhibition of the dopamine uptake will lead to increased concentration of dopamine in the synaptic cleft and potentiation of the dopamine effect on the post-synaptic receptor. This inhibition was examined in vitro by incubation of synaptosomes of the corpus striatum of the rat with radioactive labelled dopamine, as described by P. van der Zee and W. Hespe, Neuropharmacol. 17, 483-490 (1978). Measurements were made of the concentration of the test compound giving 50% inhibition of the uptake (IC50).
# [5] = membrane fraction of corpus striatum of the rat, radioactive labelled haloperidol (dopamine antagonist) as ligand, read-out: IC50, receptor binding haloperidol
SMILES,ED50 [1] [mg/kg],IC50 (dopamine receptors [2]) [nM],IC50 (dopamine receptors [3]; [5]) [nM],IC50 [4] [nM],IC50 (dopamine receptors [3]) [nM],"ED50, stereotyped behaviour [1]"
"OC(CN1CCN(CCOC(c2ccc(F)cc2)c2ccc(F)cc2)CC1)c1ccccc1 (stereo not drawn) [Compound 1, 4-[2-[bis(4-fluorophenyl)methoxy]ethyl]-α-phenyl-1-piperazineethanol]",17.5,46.7,780,26.5,,
"OC(CCN1CCN(CCOC(c2ccc(F)cc2)c2ccc(F)cc2)CC1)c1ccccc1 (stereo not drawn) [Compound 2, 4-[2-[bis(4-fluorophenyl)methoxy]ethyl]-α-phenyl-1-piperazinepropanol]",,13.3,,1.3,307,
"OC(CCN1CCN(CCOC(c2ccc(F)cc2)c2ccc(F)cc2)CC1)c1ccc(F)cc1 (stereo not drawn) [Compound 3, 4-[2-[bis(4-fluorophenyl)methoxy]ethyl]-α-(4-fluorophenyl)-1-piperazinepropanol]",1.7,8.7,610,8.2,,2.3 mg/kg p.o. and 1.3 mg/kg p.o.
"OC(Cc1ccccc1)CN1CCN(CCOC(c2ccc(F)cc2)c2ccc(F)cc2)CC1 (stereo not drawn) [Compound 4, 4-[2-[bis(4-fluorophenyl)methoxy]ethyl]-α-(phenylmethyl)-1-piperazineethanol]",~6,30.5,546,5.4,,
"CC(O)(CCN1CCN(CCOC(c2ccc(F)cc2)c2ccc(F)cc2)CC1)c1ccccc1 (stereo not drawn) [Compound 5, 4-[2-[bis(4-fluorophenyl)methoxy]ethyl]-α-phenyl-α-methyl-1-piperazinepropanol]",14,22.3,283,2.4,,
"CC(O)(CCN1CCN(CCOC(c2ccc(F)cc2)c2ccc(F)cc2)CC1)c1ccc(F)cc1 (stereo not drawn) [Compound 6, 4-[2-[bis(4-fluorophenyl)methoxy]ethyl]-α-(4-fluorophenyl)-α-methyl-1-piperazinepropanol]",11.4,32.3,277,6.7,,
"CCC(O)(CCN1CCN(CCOC(c2ccc(F)cc2)c2ccc(F)cc2)CC1)c1ccccc1 (stereo not drawn) [Compound 7, 4-[2-[bis(4-fluorophenyl)methoxy]ethyl]-α-ethyl-α-phenyl-1-piperazinepropanol]",26,63,361,22.1,,
"OC(CCCN1CCN(CCOC(c2ccc(F)cc2)c2ccc(F)cc2)CC1)c1ccccc1 (stereo not drawn) [Compound 8, 4-[2-[bis(4-fluorophenyl)methoxy]ethyl]-α-phenyl-1-piperazinebutanol]",6.2,4,445,3.4,,4.6 mg/kg p.o.
"Cl.Cl.OC(CCCN1CCN(CCOC(c2ccc(F)cc2)c2ccc(F)cc2)CC1)c1ccc(F)cc1 (stereo not drawn) [Compound 9, 4-[2-[bis(4-fluorophenyl)methoxy]ethyl]-α-(4-fluorophenyl)-1-piperazinebutanol dihydrochloride]",< 5,18.1,,2.8,492,
"O=C(CN1CCN(CCOC(c2ccc(F)cc2)c2ccc(F)cc2)CC1)c1ccccc1 [Compound 10, 2-[4-[2-[bis(4-fluorophenyl)methoxy]ethyl]-1-piperazinyl]-1-phenylethanonedihydrochloride]",,55,524,28.3,,
"O=C(CCN1CCN(CCOC(c2ccc(F)cc2)c2ccc(F)cc2)CC1)c1ccccc1 [Compound 11, 3-[4-[2-[bis(4-fluorophenyl)methoxy]ethyl]-1-piperazinyl]-1-phenyl-1-propanone]",< 5.5,80.3,,39.7,268,
"O=C(CCN1CCN(CCOC(c2ccc(F)cc2)c2ccc(F)cc2)CC1)c1ccc(F)cc1 [Compound 12, 3-[4-[2-[bis(4-fluorophenyl)methoxy]ethyl]-1-piperazinyl]-1-(4-fluorophenyl)-1-propanone]",5.5,180,467,35.4,,
"Cl.Cl.O=C(Cc1ccccc1)CN1CCN(CCOC(c2ccc(F)cc2)c2ccc(F)cc2)CC1 [Compound 13, 1-[4-[2-[bis(4-fluorophenyl)methoxy]ethyl]-1-piperazinyl]-3-phenyl-2-propanone dihydrochloride]",9.1,76,,27,545,
"Cl.Cl.O=C(CCCN1CCN(CCOC(c2ccc(F)cc2)c2ccc(F)cc2)CC1)c1ccccc1 [Compound 14, 4-[4-[2-[bis(4-fluorophenyl)methoxy]-ethyl]-1-piperazinyl]-1-phenyl-1-butanone dihydrochloride]",18,15.5,,2.5,23.3,
"O=C(CCCN1CCN(CCOC(c2ccc(F)cc2)c2ccc(F)cc2)CC1)c1ccc(F)cc1 [Compound 15, 4-[4-[2bis(4-fluorophenyl)methoxy]ethyl]-1-piperazinyl]-1-(4-fluorophenyl)-1-butanone dihydrochloride]",> 46,291,,5.2,19,
"COC(CCN1CCN(CCOC(c2ccc(F)cc2)c2ccc(F)cc2)CC1)c1ccccc1.Cl.Cl (stereo not drawn) [Compound 16, 1-[2-[bis-(4-fluorophenyl)methoxy]ethyl]-4-(3-phenyl-3-methoxypropyl]piperazine dihydrochloride]",4.6,50,,13.2,523,
"CNC(=O)OC(CCN1CCN(CCOC(c2ccc(F)cc2)c2ccc(F)cc2)CC1)c1ccccc1 (stereo not drawn) [Compound 17, methylcarbaminic 3-[4-[2-[bis(4-fluorophenyl)methoxy]ethyl]-1-piperazinyl]-1-phenylpropyl]ester (Z)-2-butendioate (1:2)]",4.3,27.2,,4.9,97.3,7.2 mg/kg p.o.
"CCNC(=O)OC(CCN1CCN(CCOC(c2ccc(F)cc2)c2ccc(F)cc2)CC1)c1ccccc1 (stereo not drawn) [Compound 18, Ethylcarbaminic[3-[4-[2-[bis(fluorophenyl)methoxy]ethyl]-1-piperazinyl]-1-phenylpropyl]ester (Z)-2-butenedioate (1:2)]",11.2,16.9,216,2.4,,
"O=C(Nc1ccccc1)OC(CCN1CCN(CCOC(c2ccc(F)cc2)c2ccc(F)cc2)CC1)c1ccccc1 (stereo not drawn) [Compound 19, Phenylcarbaminic[3-[4-[2-[bis(4-fluorophenyl)methoxy]ethyl]-1-piperazinyl]-1-phenylpropyl]ester (Z)-2-butenedioate (1:2)]",,43.4,302,3.3,,
"CC(C)C[C@H]1C(=O)N2CCC[C@H]2[C@]2(O)O[C@](NC(=O)[C@@H]3C=C4c5cccc6[nH]c(Br)c(c56)C[C@H]4N(C)C3)(C(C)C)C(=O)N12 [bromocriptine, reference compound]",25.3,,,,,
"c1cnc(N2CCN(Cc3ccc4c(c3)OCO4)CC2)nc1 [piribedil, reference compound]",99.5,,,,,
